{
  "source": "paper PMC10970734",
  "about": "“Identification of an Intravenous Injectable NK1 Receptor Antagonist for Use in Traumatic Brain Injury” (International Journal of Molecular Sciences, 2024)",
  "key": {"[1]": {"biological_target": "T1, central NK1Rs (Meriones unguiculatus, UniProt Q5DUB1)", "T1 construct": "antagonize central NK1Rs in vivo; from tissue; host or cells: brain of living Mongolian gerbils (in vivo)", "T1 sequence (Q5DUB1 whole entry)": "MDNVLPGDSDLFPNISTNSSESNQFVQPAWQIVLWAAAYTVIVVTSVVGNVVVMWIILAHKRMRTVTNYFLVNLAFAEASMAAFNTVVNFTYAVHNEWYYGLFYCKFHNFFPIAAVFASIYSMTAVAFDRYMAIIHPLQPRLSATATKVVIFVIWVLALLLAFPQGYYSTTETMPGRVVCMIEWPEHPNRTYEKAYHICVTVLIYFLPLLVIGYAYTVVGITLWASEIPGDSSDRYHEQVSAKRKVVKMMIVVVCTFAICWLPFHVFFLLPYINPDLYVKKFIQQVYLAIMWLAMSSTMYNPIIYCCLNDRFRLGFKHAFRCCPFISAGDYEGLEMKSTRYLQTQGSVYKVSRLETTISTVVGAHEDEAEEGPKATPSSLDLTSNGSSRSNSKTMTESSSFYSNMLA", "experiment": "Gerbil foot-tapping response induced by icv GR73632", "format": "in vivo, Mongolian Gerbils", "description": "The ability of EUC-001 to antagonize central NK1Rs in vivo was examined using the gerbil foot-tapping response. The hind-foot-tapping response is a species-specific, CNS-mediated reaction that occurs in response to fear-evoking situations or aversive stimuli. The same, stereotyped response can be induced by the intracerebroventricular (icv) injection of a selective NK1 receptor agonist, such as GR73632 [59]. In turn, this NK1R-mediated response can be inhibited by centrally acting NK1R antagonists, as well as other anxiolytic agents. Animals were pretreated with a range of concentrations of EUC-001 2 h prior to the icv administration of the NK1R agonist, GR73632.\nFemale Mongolian Gerbils weighing 30–60 g were administered drug vehicle or a predetermined dose of EUC-001 either orally (po) at a volume of 5 mL/kg or intravenously (iv) at a volume of 1 mL/kg. […] Following recovery from the anesthesia (recovery of the righting reflex), a 5 min observation period was allocated per study and the amount of time gerbils spent tapping their hind paws was measured."}, "[2]": {"biological_target": "NK1R (Homo sapiens, UniProt P25103)", "sequence (P25103 whole entry)": "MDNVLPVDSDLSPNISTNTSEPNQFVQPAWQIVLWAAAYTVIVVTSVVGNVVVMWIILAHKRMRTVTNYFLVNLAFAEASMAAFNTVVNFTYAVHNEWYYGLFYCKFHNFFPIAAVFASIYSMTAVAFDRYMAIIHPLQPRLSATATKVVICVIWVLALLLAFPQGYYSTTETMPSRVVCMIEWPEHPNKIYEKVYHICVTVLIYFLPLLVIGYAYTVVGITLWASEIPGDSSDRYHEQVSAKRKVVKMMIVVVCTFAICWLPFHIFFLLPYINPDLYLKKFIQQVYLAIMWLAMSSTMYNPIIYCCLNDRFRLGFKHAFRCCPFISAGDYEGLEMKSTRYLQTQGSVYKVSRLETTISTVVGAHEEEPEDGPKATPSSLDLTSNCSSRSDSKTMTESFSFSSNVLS", "experiment": "In vitro functional assay, free Ca2+ concentration in U373MG cells endogenously expressing NK1R", "format": "cell-based", "parameters": "which endogenously express the NK1R; endogenous in cells; host or cells: U373MG human glioblastoma astrocytoma cells (ATCC)", "description": "In vitro functional assays were performed by assessing changes in free Ca^2+ ion concentration in human glioblastoma (U373MG) cells, which endogenously express the NK1R. Agonist activity of EUC-001 is expressed as a percentage of the agonist response induced by the selective NK1R agonist [Sar^9, Met(O2)^11]-substance P (100 nM; Figure 2A), whilst antagonist activity is expressed as a percentage change in the response induced by 3 nM [Sar^9, Met(O2)^11]-SP (Figure 2B).\nHuman glioblastoma astrocytoma (U373MG) cells (ATCC) were used for in vitro function studies involving intracellular calcium measurements. […] Intracellular calcium concentrations were determined by using the calcium chelating agent fura-2 (Molecular Probes, Waltham, MA, USA). Aliquots of fura-2-loaded cells were subject to agonist stimulation and fluorescence emission was recorded using an MS-5 spectrophotometer (Perkin Elmer, Shelton, CT, USA). Loading of cells, fluorescence monitoring, calibration procedures, and other experimental details were as previously described.\nFor agonist activity, results are expressed as a percentage of the control agonist response induced by the selective NK1R agonist [Sar^9, Met(O2)^11]-substance P (100 nM) for a range of concentrations of EUC-001. […]"}, "[3]": {"experiment": "Aqueous solubility", "format": "physicochemical", "settings": "water"}, "[4]": {"tested_on": "rodent model of TBI", "experiment": "Motor function after TBI, rotarod test", "format": "in vivo, Sprague Dawley rats", "settings": "rat TBI, 10 mg/kg 30 min post-injury, 10 days", "quoted_text": "The maximum duration of the task was 120 s.\nInjury was induced in halothane-anesthetized (ProVet) male Sprague Dawley rats (400 ± 20 g) using acceleration-induced impact TBI [29, 93]. This model involves impacting a 10 mm diameter, 3 mm thick stainless steel disc fixed centrally to the exposed skull between the lambda and bregma with an accelerating impactor. The impactor was a 450 g brass weight dropped from a height of 2 m. […] All animals were fed and watered ad libitum before the induction of injury. During both surgery and the immediate recovery phase, rat rectal temperature was maintained using a thermostatically controlled heating pad. Immediately after injury, animals were manually ventilated until stable respiration was restored, usually in <5 min. After injury, all wounds were sutured. Blood pressure was monitored, both before and after injury, using a femoral arterial line.\nMotor and cognitive outcomes in animals (n = 6 per group) were assessed using the rotarod and Barnes maze, respectively, as described in detail elsewhere [64]. The rotarod consists of a motorized rotating assembly of 18 rods (1 mm in diameter) upon which the animals were placed. The rotational speed of the device was increased from 0 to 30 r.p.m. and the duration (in seconds) when the animals either completed the task, fell from the rods, or gripped the rods and spun for two consecutive revolutions rather than walking actively was recorded as the rotarod score. […] After activating the bright lights and aversive auditory stimulus, the latency (in seconds) for the animal to locate and enter the escape tunnel was recorded. All animals were pretrained on both functional outcome tests twice per day over 5 days before injury to establish a normal, uninjured baseline."}, "[5]": {"biological_target": "T2, recombinant human NK2 receptor (Homo sapiens, UniProt P21452)", "T2 sequence (P21452 1-398)": "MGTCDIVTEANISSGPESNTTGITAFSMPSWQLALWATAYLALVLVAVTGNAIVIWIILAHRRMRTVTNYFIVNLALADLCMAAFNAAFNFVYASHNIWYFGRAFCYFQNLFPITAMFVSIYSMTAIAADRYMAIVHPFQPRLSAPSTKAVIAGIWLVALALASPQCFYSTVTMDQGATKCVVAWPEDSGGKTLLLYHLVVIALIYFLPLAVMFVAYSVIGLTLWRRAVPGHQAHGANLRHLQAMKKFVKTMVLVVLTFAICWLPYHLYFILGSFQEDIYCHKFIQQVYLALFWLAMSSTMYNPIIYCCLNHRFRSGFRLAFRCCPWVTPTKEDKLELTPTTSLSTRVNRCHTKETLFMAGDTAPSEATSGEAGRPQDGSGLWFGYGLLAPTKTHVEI", "experiment": "Radioligand binding, recombinant human NK2 receptor"}},
  "note": "pIC50, pKi: −log10 of the molar value. Entries after “also recorded” stand apart in the source; their conditions may differ. Where two headings read alike, the source gives them in different places.",
  "data": [
    {"smiles": "Cc1ccccc1-c1cc(N2CCN(C)CC2)ncc1C(=O)N(C)Cc1cc(C(F)(F)F)cc(C(F)(F)F)c1", "note": "[EUC-001, N-(3,5-Bis-trifluoromethyl-benzyl)-N-methyl-6-(4-methyl-piperazine-1-yl)-4-o-tolyl-nicotinamide]", "values": [
      {"measurement": "ED50", "setting": "[1]; iv administration, icv GR73632, read-out: IC50 dose, inhibition of foot-tapping response", "result": 0.68, "unit": "mg/kg"},
      {"measurement": "ED50", "setting": "[1]; oral administration (po), icv GR73632 3 pmol/5 µL, read-out: IC50 dose, inhibition of foot-tapping response", "result": 0.89, "unit": "mg/kg"},
      {"measurement": "Agonist activity, percentage of response to 100 nM [Sar9, Met(O2)11]-substance P", "setting": "[2]", "result": "did not exhibit any detectable agonist activity; also recorded: no agonist activity"},
      {"measurement": "pIC50", "setting": "[2]; 3 nM [Sar9, Met(O2)11]-SP, read-out: IC50, inhibition of [Sar9, Met(O2)11]-SP-mediated response", "result": 9.16},
      {"measurement": "solubility", "setting": "[3]; free base", "result": 500, "unit": "µg/mL"},
      {"measurement": "solubility", "setting": "[3]; hydrochloride salt", "result": 1500, "unit": "µg/mL"},
      {"measurement": "Motor function, rotarod score", "setting": "[4]", "result": "much smaller decline in motor function"},
      {"measurement": "pKi", "setting": "[5]", "result": 5.47}
    ]}
  ]
}
